Assay results as given in patent US20240076272A1, “Activators of Heme Regulated Inhibitor Kinase (HRI)” (The Brigham and Women`s Hospital, Inc., priority 2019, published 2024).

How the values were obtained:
[1] = system: eIF2α phosphorylation (ATF-4 5′UTR luciferase reporter); assay: surrogate eIF2α phosphorylation dual-luciferase reporter (DLR) assay; assay type: cell-based; conditions: F/R luciferase ratio normalized to DMSO wells (F/R=1); for fold induction at 1.25 µM: read-out: Fold stimulation of ATF-4 Surrogate eIF2α @ 1.25 μM; for fold induction at 5 µM: read-out: Fold stimulation of ATF-4 Surrogate eIF2α @ 5 μM
Description: The dual luciferase expression vector and other plasmids used in the Examples provided herein have been previously reported (see e.g., Ziegeler et al, J. Biol. Chem. 285 (2010) 15408-15419). The dual luciferase surrogate eIF2α phosphorylation assay, has also been previously reported (see e.g., Chen et al, Nat. Chem. Biol. 7 (2011) 610-616). Briefly, a dual Renilla and Firefly luciferase mammalian reporter vector that transcribes both mRNAs from the same bi-directional enhancer/promoter complex was utilized for generation of surrogate eIF2α phosphorylation assay (see e.g., Ziegeler et al, J. Biol. Chem. 285 (2010) 15408-15419). Both mRNAs contained the same 90 nucleotide plasmid derived 5′UTR. In addition, 5′UTR of the Firefly luciferase open reading frame was fused in-frame to the 267 nucleotide ATF-4 5′UTR (see e.g., Chen et al, Nat. Chem. Biol. 7 (2011) 610-616).
Cells expressing firefly and renilla luciferases were assayed with a dual glow luciferase assay kit, per manufacturer's instruction (Promega Inc., Madison, WI). The data calculations were carried out as the ratio of firefly to renilla luciferase signal (see e.g., Ziegeler et al, J. Biol. Chem. 285 (2010) 15408-15419). Dose-response curves were obtained, and triplicate data points were fitted to the logistical sigmoidal model using nonlinear least-squares regression performed in GraphPad Prism 6.
All newly synthesized N,N′-disubstituted ureas were initially evaluated by testing in the surrogate eIF2α phosphorylation dual-luciferase reporter (DLR) assay (see e.g., Chen et al, Nat. Chem. Biol. 7 (2011) 610-616; and Ziegeler et al, J. Biol. Chem. 285 (2010) 15408-15419). Briefly, this assay takes advantage of the fact that activated HRI phosphorylates eIF2α which inhibits eIF2 guanine nucleotide exchange factor eIF2B, responsible for exchanging the GDP in the eIF2·GDP complex for GTP. The reduction in the recycling of eIF2·GDP into eIF2·GTP interferes with the formation of eIF2·GTP·Met-tRNAi ternary complex. […] These include mRNA coding for activating transcription factor 4 (ATF-4) (see e.g., Aktas et al, Oncotarget, 4 (2013) 1606-1617; Aktas et al, Oncotarget, 6 (2015) 6902-6914; and Aktas et al, Proc. Natl. Acad. Sci. U.S.A. 95 (1998) 8280-8285).
In the present assay, firefly (F) luciferase mRNA was fused to the 5′UTR of ATF-4 mRNA that had multiple uORFs, while renilla (R) luciferase mRNA was fused to a 5′UTR lacking any uORFs. Agents that reduce the amount of the eIF2·GTP·Met-tRNAi ternary complex, such as N,N′-disubstituted ureas that activate HRI, increase F luciferase expression while reducing the R luciferase expression, resulting in an increased F/R luciferase ratio. The ureas of the present application were tested at 10 μM, 5 μM, 2.5 μM, and 1.25 μM concentrations in 96-well assay plates (see e.g., Chen et al, Nat. Chem. Biol. 7 (2011) 610-616; and Bai et al, ChemBioChem, 14 (2013) 1255-1262). The activity scores as the F/R ratios were calculated for every compound-treated well and normalized to F/R ratio of vehicle-treated (DMSO) wells in the same plate, arbitrarily set at 1 (F/R=1). Data obtained in the surrogate dual-luciferase eIF2α phosphorylation (DLR) assay for the series of 1-phenyl-3/4-(4-trifluorometyl) phenoxy-cycloalkyl)ureas (4-CF3-ΦcAlkΦUs) and 1-phenyl-3-(5-(4-(trifluoromethyl) phenoxy)pyrimidin-2-yl)ureas (4-CF3-ΦOPyΦUs) described herein are shown in Tables 1-2.

[2] = system: human melanoma CRL-2813 cells; assay: sulforhodamine B (SRB) cell proliferation assay; assay type: cell-based; conditions: Homo sapiens, CRL2813, 120 h, 5 days, read-out: IC50 (concentration that inhibits growth of human melanoma CRL-2813 cells by 50%)
Protocol: Cells were seeded in 96-well plates and maintained for 5 days in the presence of 0.5 μM to 20 μM of individual compound, and cell proliferation was measured by the sulforhodamine B (SRB) assay according to previous reports (see e.g., Palakurthi et al, Cancer Res. 60 (2000) 2919-2925): briefly, at the end of a 5-day treatment, cells were fixed in 10% cold trichloroacetic acid. Cell number was estimated by measuring the remaining bound dye of sulforhodamine B after washing. The percentage of growth was calculated by using the equation: 100×[(T-T0)/(C-T0)], where T and C represent the absorbance in treated and control cultures at Day 5, and T0 at time zero, respectively. If T was less than T0, cell death had occurred and was calculated from 100×[(T-T0)/T0].
All 4-CF3-ΦOcAlkΦUs were tested in the sulforhodamine B (SRB) cell proliferation assay to establish the concentrations that inhibit human melanoma CRL-2813 cells growth by 50% (IC50) (see Table 1). This activity reflects a combined effect of membrane permeability and overall anti-proliferative effects that include on target and off-target effects.

Compound | Fold stimulation of ATF-4 Surrogate eIF2α @ 1.25 μM [1] [fold] | fold induction at 1.25 µM [1] | fold induction at 5 µM ([1]; 5 μM) | melting point [°C] | IC50 [2] [nM] | Fold stimulation of ATF-4 Surrogate eIF2α @ 5 μM ([1]; 5 μM) [fold]
N#Cc1cc(NC(=O)N[C@H]2C[C@@H](Oc3ccc(C(F)(F)F)cc3)C2)cc(C(F)(F)F)c1 [Compound 1-IVc, 1-(3-Cyano-5-(trifluoromethyl)phenyl)-3-(cis-3-(4-(trifluoromethyl)phenoxy)cyclobutyl)urea] | 4.3 ± 0.6 | 4.3 | 8.4 ± 0.5 | 194.6 to 196.1 | 900 | 
N#Cc1cc(NC(=O)N[C@H]2CC[C@H](Oc3ccc(C(F)(F)F)cc3)C2)cc(C(F)(F)F)c1 [Compound 1-V, 1-(3-Cyano-5-(trifluoromethyl)phenyl)-3-((1S,3S)-3-(4-(trifluoromethyl)phenoxy)cyclopentyl)urea] | 3.1 ± 0.7 | 3.1 | 8.3 | 144.4 to 146.2 | 1200 | 8.3 ± 2.4
N#Cc1cc(NC(=O)Nc2ncc(Oc3ccc(C(F)(F)F)cc3)cn2)cc(C(F)(F)F)c1 [Compound 1-py, 1-(3-Cyano-5-(trifluoromethyl)phenyl)-3-(5-(4-(trifluoromethyl)phenoxy)pyrimidin-2-yl)urea] |  |  |  | 263.5 to 265.5 |  | 
O=C(Nc1cccc(C(F)(F)F)c1)N[C@H]1C[C@H](Oc2ccc(C(F)(F)F)cc2)C1 [Compound 2-IV, 1-(trans-3-(4-(Trifluoromethyl)phenoxy)cyclobutyl)-3-(3-(trifluoromethyl)phenyl)urea] |  | 2.4 ± 0.6 | 6.5 ± 1.2 | 171.8 to 174.6 | 3400 ± 1000 | 
O=C(Nc1cccc(C(F)(F)F)c1)N[C@H]1C[C@@H](Oc2ccc(C(F)(F)F)cc2)C1 [Compound 2-IVc, 1-(cis-3-(4-(Trifluoromethyl)phenoxy)cyclobutyl)-3-(3-(trifluoromethyl)phenyl)urea] |  | 1.2 ± 0.3 | 6.2 ± 1.2 | 166.6 to 168.5 | 2600 ± 400 | 
O=C(Nc1cccc(C(F)(F)F)c1)N[C@H]1CC[C@H](Oc2ccc(C(F)(F)F)cc2)C1 [Compound 2-V] |  | 1.2 ± 0.4 | 7 ± 0.9 | 123.5 to 125.3 | 2500 ± 500 | 
O=C(Nc1cccc(C(F)(F)F)c1)Nc1ncc(Oc2ccc(C(F)(F)F)cc2)cn1 [Compound 2-py, 1-(5-(4-(Trifluoromethyl)phenoxy)pyrimidin-2-yl)-3-(3-(trifluoromethyl)phenyl)urea] |  |  |  | 232.5 to 234.8 |  | 
N#Cc1cccc(NC(=O)N[C@H]2C[C@H](Oc3ccc(C(F)(F)F)cc3)C2)c1 [Compound 3-IV, 1-(3-Cyanophenyl)-3-(trans-3-(4-(trifluoromethyl)phenoxy)cyclobutyl)urea] | 1.6 ± 0.2 | 1.6 | 3.5 ± 0.4 | 181.1 to 182.3 | 4900 | 
N#Cc1cccc(NC(=O)N[C@H]2C[C@@H](Oc3ccc(C(F)(F)F)cc3)C2)c1 [Compound 3-IVc, 1-(3-Cyanophenyl)-3-(cis-3-(4-(trifluoromethyl)phenoxy)cyclobutyl)urea] | 1.1 ± 0.2 | 1.1 | 0.9 ± 0.1 | 203.7 to 206.8 | > 10000 | 
N#Cc1cccc(NC(=O)N[C@H]2CC[C@H](Oc3ccc(C(F)(F)F)cc3)C2)c1 [Compound 3-V] |  | 0.8 ± 0.2 | 1.6 ± 0.2 | 160.2 to 162.1 | 6500 ± 2300 | 
N#Cc1cccc(NC(=O)Nc2ncc(Oc3ccc(C(F)(F)F)cc3)cn2)c1 [Compound 3-py, 1-(3-Cyanophenyl)-3-(5-(4-(trifluoromethyl)phenoxy)pyrimidin-2-yl) urea] |  |  |  | 260.2 to 261.5 |  | 
N#Cc1cc(F)cc(NC(=O)N[C@H]2C[C@H](Oc3ccc(C(F)(F)F)cc3)C2)c1 [Compound 4-IV, 1-(3-Cyano-5-fluorophenyl)-3-(trans-3-(4-(trifluoromethyl)phenoxy)cyclobutyl)urea] |  | 2 ± 0.4 | 5.3 ± 0.6 | 182.8 to 185 | 2800 ± 1300 | 
N#Cc1cc(F)cc(NC(=O)N[C@H]2CC[C@H](Oc3ccc(C(F)(F)F)cc3)C2)c1 [Compound 4-V] |  | 2.4 ± 0.3 | 8 ± 2 | 176.2 to 177.8 | 1900 ± 1300 | 
N#Cc1cc(F)cc(NC(=O)Nc2ncc(Oc3ccc(C(F)(F)F)cc3)cn2)c1 [Compound 4-py, 1-(3-Cyano-5-fluorophenyl)-3-(5-(4-(trifluoromethyl)phenoxy)pyrimidin-2-yl)urea] |  |  |  | 267.5 to 270 |  | 
Cc1ccc(F)cc1NC(=O)N[C@H]1C[C@H](Oc2ccc(C(F)(F)F)cc2)C1 [Compound 7-IV, 1-(5-Fluoro-2-methylphenyl)-3-(trans-3-(4-(trifluoromethyl)phenoxy)cyclobutyl)urea] |  | 0.7 ± 0.2 | 1.4 ± 0.1 | 204.2 to 206 | > 10000 | 
Cc1ccc(F)cc1NC(=O)N[C@H]1CC[C@H](Oc2ccc(C(F)(F)F)cc2)C1 [Compound 7-V, 1-(5-Fluoro-2-methylphenyl)-3-((1S,3S)-3-(4-(trifluoromethyl)phenoxy)cyclopentyl)urea] |  | 1.4 ± 0.1 | 1.3 ± 0.4 | 209.8 to 211.4 | 8000 ± 2500 | 
Cc1ccc(F)cc1NC(=O)Nc1ncc(Oc2ccc(C(F)(F)F)cc2)cn1 [Compound 7-py, 1-(5-Fluoro-2-methylphenyl)-3-(5-(4-(trifluoromethyl)phenoxy)pyrimidin-2-yl)urea] |  |  |  | 224.2 to 226.5 |  | 
N#Cc1ccc(NC(=O)N[C@H]2CC[C@H](Oc3ccc(C(F)(F)F)cc3)CC2)c(F)c1 [Compound 8-VI, 1-(4-Cyano-2-fluorophenyl)-3-(trans-4-(4-(trifluoromethyl)phenoxy)cyclohexyl)urea] |  | 2.4 ± 0.4 | 6.2 ± 1.3 | 221.6 to 223.6 | 1400 ± 300 | 
O=C(Nc1ccc(F)c(F)c1)Nc1ncc(Oc2ccc(C(F)(F)F)cc2)cn1 [Compound 10-py, 1-(3,4-Difluorophenyl)-3-(5-(4-(trifluoromethyl)phenoxy)pyrimidin-2-yl) urea] |  |  |  | 224.8 to 226.2 |  | 
